Laboratory results: US8937091B2 (Japan Science and Technology Agency, priority 2009, dated 2015)
Where two headings read alike, the source gives them in different places.

Legend:
[1] = test system: IICR (IP3 induced calcium release) in CHO cells; test: Assay of IICR (IP3 induced calcium release)-inhibiting action; type: cell-based, Chinese hamster; conditions: for IICR level (percentage of inhibition): CHO cells, 10 μM ATP
In short: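 Inhibition (%) of the intracellular calcium increase triggered by 10 μM ATP, measured in CHO cells in BSS with calcium. Compound given 1 min after the buffer exchange and 2 min before ATP; values reported per compound concentration.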

TGase = TGase (Cavia porcellus, UniProt P08587); type: biochemical; conditions: for TG level: level with DMSO control designated as 100
Experimental: An enzyme reaction solution (0.1 ml) (100 mM HEPES-NaOH, pH 7.5, 1 mM CaCl2, 20 μM monodansyl cadaverine, 0.05 mg/ml N,N-dimethylcasein, 5 μg/ml TGase) was introduced into wells of a 96-well plate (Nunc, 96 Well Black Plate with Clear Bottom). A test compound was added in concentrations of 0.3, 1.0, 3.0, 10, and 30 μM. The solution and the compound were sufficiently mixed while preventing foaming. The plate was set in the fluorescence drug screening system FDSS 3000 (Hamamatsu Photonics K.K.). TGase-inhibiting activity of the compound was calculated by assaying changes in fluorescence wavelength (at 340 nm) per unit time. […] The assay level at which TGase activity decreased by half in the presence of the test compound was designated as TG 50.
Hereafter, the numerals in parentheses written after the TG level, the SOCE level, and the IICR level correspond to the test compound concentrations. The number following the name of each title compound used in the Examples below represents a compound ID number designated arbitrarily by the present inventors.

[2] = test system: SOCE (store operated calcium entry) in CHO cells; test: Assay of SOCE (store operated calcium entry)-inhibiting action; type: cell-based, Chinese hamster; conditions: CHO cells, thapsigargin
In short: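 CHO cells in calcium-free BSS received compound, then 1 μM thapsigargin 2 min later to deplete stores; after 9 min, 2 mM calcium chloride (final) added. Percent inhibition of the rise in intracellular calcium determined at various compound concentrations.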

Molecule	IICR level (percentage of inhibition) ([1]; test compound 10 μmol) [%]	IICR level (percentage of inhibition) ([1]; test compound 30 μmol) [%]	IICR level (percentage of inhibition) ([1]; test compound 100 μmol) [%]	TG level (TGase; test compound 3 μmol)	TG level (TGase; test compound 30 μmol)	SOCE level (percentage of inhibition) ([2]; test compound 30 μmol) [%]	SOCE level (percentage of inhibition) ([2]; test compound 100 μmol) [%]	IICR-inhibiting activity compared with SOCE-inhibiting activity (in words) [1]	TG-activity-inhibiting action or protein-crosslinking-inhibiting action (in words) (TGase)	other results
2-(N-isopropyl-2-hydroxyethyl)aminoethylferrocenylketone [Example 287]	20	40	40	100	60.8	0	10	–	–	–
2-(N-isopropylbenzyl)aminoethyl-1-methyl-2-pyrrylketone [Example 195]	0	0	0	73	6.4	0	10	–	–	TG level (TGase; test compound 10 μmol): 62.6; SOCE level (percentage of inhibition) ([2]; test compound 10 μmol): 0%
2-(N-isopropylbenzyl)aminoethylferrocenylketone [Example 286]	50	80	50	99.2	54.2	0	0	–	–	–
2-bis(N-2-hydroxyethyl)aminoethylferrocenylketone [Example 288]	40	50	60	94.9	44.1	10	40	–	–	–
O=C(CCNCCSSCCNCCC(=O)c1ccc(Br)s1)c1ccc(Br)s1 [Example 340]	0	40	60	0.8	4.3	18	65	–	–	TG level (TGase; test compound 10 μmol): 2.5; SOCE level (percentage of inhibition) ([2]; test compound 10 μmol): 0%
O=C(CCNCCCCNCCC(=O)c1ccc(Br)s1)c1ccc(Br)s1 [Example 356]	0	0	10	93	3.6	3	10	–	–	TG level (TGase; test compound 10 μmol): 22.6; SOCE level (percentage of inhibition) ([2]; test compound 10 μmol): 0%
O=C(CCNCCSSCCNCCC(=O)c1cccs1)c1cccs1 [Example 369]	0	0	70	95.1	−64.9	40	50	–	–	SOCE level (percentage of inhibition) ([2]; test compound 10 μmol): 20%
CN(CCO)CCC(=O)c1ccco1 [Example 8707, 2-(N-2-hydroxyethylmethyl)aminoethyl-2-furylketone]	–	–	–	–	–	–	–	higher than SOCE-inhibiting activity	strongly	–
CC(C)(C)N(CCC(=O)c1nccs1)Cc1ccccc1 [Example 8729, 2-(N-benzyl-t-butyl)aminoethyl-2-thiazolylketone]	–	–	–	–	–	–	–	higher than SOCE-inhibiting activity	strongly	–
CC(C)(C)N(CCC(=O)c1ccc(Cl)s1)Cc1ccccc1 [Example 8756, 2-(N-t-butylbenzyl)aminoethyl-5-chloro-2-thienylketone]	–	–	–	–	–	–	–	higher than SOCE-inhibiting activity	strongly	–
CC(C)N(CCC(=O)c1cc2ccccc2s1)Cc1ccccc1 [Example 8759, 2-(N-isopropylbenzyl)aminoethyl-2-benzothienylketone]	–	–	–	–	–	–	–	higher than SOCE-inhibiting activity	strongly	–
CC(C)(C)N(CCC(=O)c1cc2ccccc2s1)Cc1ccccc1 [Example 8761, 2-(N-t-butylbenzyl)aminoethyl-2-benzothienylketone]	–	–	–	–	–	–	–	higher than SOCE-inhibiting activity	strongly	–
CCN(CCC(=O)c1nccs1)Cc1ccccc1 [Example 8765, 2-(N-ethylbenzyl)aminoethyl-2-thiazolylketone]	–	–	–	–	–	–	–	higher than SOCE-inhibiting activity	strongly	–
O=C(CCN(CCO)Cc1ccccc1)c1nccs1 [Example 8766, 2-(N-2-hydroxyethylbenzyl)aminoethyl-2-thiazolylketone]	–	–	–	–	–	–	–	higher than SOCE-inhibiting activity	strongly	–
CC(C)N(CCC(=O)c1ccc(Br)s1)Cc1ccccc1 [Example 8768, 2-(N-isopropylbenzyl)aminoethyl-5-bromo-2-thienylketone]	–	–	–	–	–	–	–	higher than SOCE-inhibiting activity	strongly	–
CCCCN(CCO)CCC(=O)c1ccc(Br)s1 [Example 8769, 2-(N-2-hydroxyethylbutyl)aminoethyl-5-bromo-2-thienylketone]	–	–	–	–	–	–	–	higher than SOCE-inhibiting activity	strongly	–
CC(C)(C)N(CCC(=O)c1ccc(C#N)cc1)Cc1ccccc1 [Example 8789, 2-(N-t-butylbenzyl)aminoethyl-4-cyanophenylketone]	–	–	–	–	–	–	–	higher than SOCE-inhibiting activity	strongly	–
CC(C)N(CCC(=O)c1ccc(C#N)cc1)Cc1ccccc1 [Example 8803, 2-(N-benzylisopropyl)aminoethyl-4-cyanophenylketone]	–	–	–	–	–	–	–	higher than SOCE-inhibiting activity	strongly	–
Cc1ccsc1C(=O)CCN(Cc1ccccc1)C(C)(C)C [Example 8816, 2-(N-benzyl-t-butyl)aminoethyl-3-methyl-2-thienylketone]	–	–	–	–	–	–	–	higher than SOCE-inhibiting activity	strongly	–
Cc1csc(C(=O)CCN(Cc2ccccc2)C(C)(C)C)c1 [Example 8817, 2-(N-benzyl-t-butyl)aminoethyl-4-methyl-2-thienylketone]	–	–	–	–	–	–	–	higher than SOCE-inhibiting activity	strongly	–
Cc1ccc(C(=O)CCN(Cc2ccccc2)C(C)(C)C)s1 [Example 8818, 2-(N-benzyl-t-butyl)aminoethyl-5-methyl-2-thienylketone]	–	–	–	–	–	–	–	higher than SOCE-inhibiting activity	strongly	–
CCCCN(CCCC)CCC(=O)c1ccc(Br)s1 [Example 8848, 2-(N,N-di-n-butyl)aminoethyl-5-bromo-2-thienylketone]	–	–	–	–	–	–	–	higher than SOCE-inhibiting activity	strongly	–
CCC(C)N(CCC(=O)c1ccc(Br)s1)C(C)CC (stereo not shown) [Example 8849, 2-(N,N-di-sec-butyl)aminoethyl-5-bromo-2-thienylketone]	–	–	–	–	–	–	–	higher than SOCE-inhibiting activity	strongly	–
